This note sets out measurements from patent US20160090351A1, “INHIBITORS OF DEUBIQUITINATING PROTEASES” (BRANDEIS UNIVERSITY, priority 2013, published 2016).

The subject of experiment [1] is G76V ubiquitin-GFP fusion protein. Kind of experiment: G76V ubiquitin-GFP fusion protein fluorescence, Example 5. Format: cell-based. The settings on record: Example 5, FIG. 9 bottom panel. As to the method: (§1) Cells treated with 4 (100 μM; as defined in FIG. 3) show PARP cleavage that indicates caspases are active. The fluorescence of G76V ubiquitin-GFP fusion protein increases in the presence of inhibitor 4 (as defined in FIG. 3), as expected if degradation […] due to inhibition of DUBs. In contrast, GFP fluorescence […] when the proteasome is inhibited by bortezomib.

The subject of experiment [2] is USP9x, USP19, USP7/8, USP28/15. Description: HA-Ub-VS activity profiling in cell lysates, USPs. Format: biochemical, human. The conditions noted are these: HEK293T or Cos-1 lysate, compounds numbered as in FIG. 3. As to the method: (§2) HA-ubiquitin vinylsulfone (HA-Ub-VS) irreversibly labels DUBs by modifying the catalytic cysteine residue Inhibition of the DUB prevents HA-Ub-VS labeling and the band is. […] The interaction with UCHL1/3 is reversible.
(§3) Lysate labeling assay on untransfected cells (1.5 mg/mL) was run with the stated concentration of inhibitor (or 1% DMSO control) for between 19-60 mins. After this time HA-Ub-VS (1.5-0.7 μM) was added and incubated for 19 mins. After this time reaction mixture (9 μL) was removed and quenched in 2× (final concentration) reducing loading buffer. For recovery experiments, a lysate of 6 mg/mL was treated with saturating compound C14 (250 μM) and incubated for 40 mins. Afterward, the lysate was diluted to 0.6 mg/mL (final concentration of inhibitor 25 μM) in lysis buffer (final volume 100 μL), then HA-Ub-VS was added. Aliquots (15 μL) were removed at the stated time (5-119 mins) and immediately quenched in 2× (final concentration) reducing loading buffer. For all HA-Ub-VS experiments samples in loading buffer were heated only to 37° C. prior to loading on a gel. This assay is highly susceptible to concentration of lysate and HA-Ub-VS. Cell experiments were carried out as above with some modifications. For Cos-1 and MCF-7 cells, after trypsinization, media with compound was added to give a final concentration of compound equal to that used in the assay. Cell pellets were lysed on an ice/salt bath with a temperature of −5° C. and lysate was centrifuged for only 5 mins.
(§4) HA-Ub-VS is an irreversible inhibitor of DUBs that is widely used in activity profiling. If the DUB inhibitors react to form a thiocarbonylated enzyme as proposed (FIG. 29B), then HA-Ub-VS labeling will be blocked. Treatment of HEK 293T lysates with HA-Ub-VS produced the characteristic pattern of protein bands at 250, 150-100, 45, 38 and 36 kDa, generally ascribed to USP9x (292 kDa), USP19 (146 kDa), USP7/8 (128 and 127 kDa, respectively), USP28/15 (122 and 112 kDa, respectively), UCH-L5 (38 kDa), UCH-L3 (26 kDa) and UCH-L1 (25 kDa) as depicted in FIG. 31.
(§5) The effect of diphenylcarbonates on HA-Ub-VS labeling was assessed to investigate the selectivity of DUB inhibition. Lysates were preincubated with diphenyl carbonates (75 μM), then treated with HA-Ub-VS (FIG. 31A). […] These C17 and C22-sensitive DUBs are most likely USP9x, USP19, USP7/8 and UCHL5, based on molecular weight (FIGS. 31B and 38). The identity of USP7 was confirmed by immunoblotting (FIG. 38F). […] Similar behavior was observed on Cos-1 cell lysates (FIG. 38B).

The test system of another experiment is Bcr-Abl kinase. Description: Bcr-Abl levels in K562 cells by immunoblotting. It counts as cell-based, human. As to the method:
(§6) K562 cells are from a myelogenous leukemia line that expresses Bcr-Abl kinase. A. K562 cells were treated with TU50 for 24 hours after which time the cells were treated with annexin V-FITC and propidium iodide. Cells were then analyzed by flow cytometry. Cells showing only annexin V-FITC were considered apoptotic whereas cells showing both annexin V-FITC and propidium iodide were considered necrotic. N=2. All points show a significant difference to the vehicle (DMSO) with p<0.05. […] All points show a significant difference to vehicle (DMSO) with p<0.02. C. Same as A, but the incubation period was 8 hours. N>2. All points show a significant difference to DMSO with p<0.02. D, K562 cells were treated with TU50 for 4 hours. Samples were analyzed by SDS-PAGE and immunoblotting with anti-Bcr-Abl antibody. E. Quantitation of blot in D. The signal for tubulin was used to normalize the Bcr-Abl signal. N=3.
(§7) FIG. 34 depicts data showing that diphenylcarbonates cause the accumulation of HMW-Ub and reduce the levels of Bcr-Abl in K562 cells. A. K562 cells were treated with diphenyl carbonates (50 μM) for 2 h and then assayed for the accumulation of K48-linked Ub. B. As in A, but Bcr-Abl was measured by immunoblotting with anti-Abl antibodies. C. K562 cells were treated with C17 (50 μM) in the presence and absence of bortezomib (6 μM) for 4 hours and Bcr-Abl was measured by immunblotting with anti-Abl antibodies. D. Quantitation of blot in C. Significance: DMSO relative to C17 and bortezomib p=0.002; DMSO relative to C17, p=0.03. E. K562 cells were treated with C15 for 4 hours then analyzed for SMAD4 monoubiquitination by western blot. F. Quantitation of blots in A. (N=3). See also FIG. 40.
(§8) FIG. 40 depicts data showing that diphenyl carbonates induce the degradation of Bcr-Abl kinase. A. K562 cells were treated with C17 for 24 h (1 dose) then analyzed for Bcr-Abl expression by western blot with anti-Abl antibody. B. Quantitation of blots in A normalized to actin. C. K562 cells were treated with C17 for 24 h then the amount of cells in G1 and apoptosis were recorded (N=3). D. K562 were treated with C15 for 4 h then analyzed for Bcr-Abl expression using western blot. E. Quantitation of Bcr-Abl from D normalized to tubulin (N=4). F. Same K562 lysates were separately analyzed for K63-linked ubiquitin. G. Quantitation of blots in F (N=4). Differences between all bars is significant p<0.01). H. K562 cells were treated with C15 for 24 h after which time cells were fixed in ethanol, treated with propodium iodide/RNAse then analyzed by FACS. Viability was calculated using forward and side scatter. I. Same experiment as H but red fluorescence was measured to determine DNA content
(§9) Transfected cells were harvested 1.5 days post transfection. […] Typically clarified lysate was analyzed.
(In general: Immunoblotting shows a protein as a band on a membrane.)

A further experiment concerns MCF7 cells. Kind of experiment: accumulation of K48- and K63-linked ubiquitin in MCF7 cells. It counts as cell-based, human. The settings on record: 100 μM. As to the method: FIG. 41 depicts data showing that compound C17 and C15 increase P53 expression and upregulate K48-linked Ub in MCF7 cells. A. MCF7 cells were treated with C17 (50 μM) for 48 h, dosed every 24 h and samples were analyzed for K48-linked ubiquitin. Note that samples were not sonicated, so only soluble HMW-Ub is recovered. B. A similar experiment to A but samples were analyzed for p53. C. Quantitation of blots in B. Each point has a P<0.001 for an increase relative to the DMSO vehicle (N=2). D. MCF7 cells were treated with C15 (100 μM) dosing every 2 h. The accumulation of K48-linked ubiquitin was assayed by SDS-PAGE and by western blot. E. MCF7 cells were treated as in D but the accumulation of K63-linked ubiquitin was assayed. F. Cos-1 cells were treated with C15 for 2 hours then analyzed for K48-linked ubiquitin by western blot. G. Similar experiment to F, but K63-linked ubiquitin was assayed. H. Quantitation of blots in G (N=3).
Similar results were obtained in Cos-1, CHO and HEK293T.
as §9

For experiment [3], the system named is caspases or the proteasome. Kind of experiment: effect on caspases or proteasome (PARP cleavage), Example 5. Format: cell-based. The settings on record: 100 μM. As to the method:
as §1

The next experiment relates to UCH-L5, UCH-L3, UCH-L1. Kind of experiment: HA-Ub-VS activity profiling in cell lysates, UCH-Ls. Format: biochemical, human. The conditions noted are these: HEK293T or Cos-1 lysate, compounds numbered as in FIG. 3. Here is the method: as §2, §3, §4, §5
In a further experiment the test system is SMAD4. Kind of experiment: SMAD4 monoubiquitination in K562 cells by western blot. It counts as cell-based, human. Here is the method: as §7, §9
A further experiment relates to USP7. Description: MDM2 and P53 levels in treated cells, Example 6. The settings on record: compound numbered as in FIG. 3. It counts as cell-based. Here is the method: P53 is a tumor suppressor that is rapidly degraded in tumor cells due to ubiquitination by MDM2. In turn, MDM2 is degraded by the ubiquitin/proteasome system. USP7 removes ubiquitin from MDM2, stabilizing the protein, and thereby causing degradation of P53. […] This behavior is observed when cells are treated with 4 (as defined in FIG. 3). Doxorubicin (Doxo) serves as a positive control.

For a further experiment, the target named is 20S proteasome (Homo sapiens, UniProt P28074). Kind of experiment: proteasome activity (purified 20S proteasome; GFP-Ub (G76V) in Cos-1 cells). The settings on record: 20S proteasome 30 minutes, Suc-Leu-Tyr-AMC 100 μM; Cos-1 GFP-Ub (G76V) 8 hours. Format: biochemical. Here is the method:
A. Purified 20S proteasome was treated with compound for 30 minutes prior to addition of substrate (Suc-Leu-Tyr-AMC, 100 μM). B. Cos-1 cells expressing with GFP-Ub (G76V) were treated with compound for 8 hours, then the level of GFP was measured by flow cytometry.

In another experiment the target is T1, USP9x (Homo sapiens, UniProt Q93008).
T1 construct: endogenous in cells; host or cells: K562 cell lysate
T1 sequence (Q93008 whole entry): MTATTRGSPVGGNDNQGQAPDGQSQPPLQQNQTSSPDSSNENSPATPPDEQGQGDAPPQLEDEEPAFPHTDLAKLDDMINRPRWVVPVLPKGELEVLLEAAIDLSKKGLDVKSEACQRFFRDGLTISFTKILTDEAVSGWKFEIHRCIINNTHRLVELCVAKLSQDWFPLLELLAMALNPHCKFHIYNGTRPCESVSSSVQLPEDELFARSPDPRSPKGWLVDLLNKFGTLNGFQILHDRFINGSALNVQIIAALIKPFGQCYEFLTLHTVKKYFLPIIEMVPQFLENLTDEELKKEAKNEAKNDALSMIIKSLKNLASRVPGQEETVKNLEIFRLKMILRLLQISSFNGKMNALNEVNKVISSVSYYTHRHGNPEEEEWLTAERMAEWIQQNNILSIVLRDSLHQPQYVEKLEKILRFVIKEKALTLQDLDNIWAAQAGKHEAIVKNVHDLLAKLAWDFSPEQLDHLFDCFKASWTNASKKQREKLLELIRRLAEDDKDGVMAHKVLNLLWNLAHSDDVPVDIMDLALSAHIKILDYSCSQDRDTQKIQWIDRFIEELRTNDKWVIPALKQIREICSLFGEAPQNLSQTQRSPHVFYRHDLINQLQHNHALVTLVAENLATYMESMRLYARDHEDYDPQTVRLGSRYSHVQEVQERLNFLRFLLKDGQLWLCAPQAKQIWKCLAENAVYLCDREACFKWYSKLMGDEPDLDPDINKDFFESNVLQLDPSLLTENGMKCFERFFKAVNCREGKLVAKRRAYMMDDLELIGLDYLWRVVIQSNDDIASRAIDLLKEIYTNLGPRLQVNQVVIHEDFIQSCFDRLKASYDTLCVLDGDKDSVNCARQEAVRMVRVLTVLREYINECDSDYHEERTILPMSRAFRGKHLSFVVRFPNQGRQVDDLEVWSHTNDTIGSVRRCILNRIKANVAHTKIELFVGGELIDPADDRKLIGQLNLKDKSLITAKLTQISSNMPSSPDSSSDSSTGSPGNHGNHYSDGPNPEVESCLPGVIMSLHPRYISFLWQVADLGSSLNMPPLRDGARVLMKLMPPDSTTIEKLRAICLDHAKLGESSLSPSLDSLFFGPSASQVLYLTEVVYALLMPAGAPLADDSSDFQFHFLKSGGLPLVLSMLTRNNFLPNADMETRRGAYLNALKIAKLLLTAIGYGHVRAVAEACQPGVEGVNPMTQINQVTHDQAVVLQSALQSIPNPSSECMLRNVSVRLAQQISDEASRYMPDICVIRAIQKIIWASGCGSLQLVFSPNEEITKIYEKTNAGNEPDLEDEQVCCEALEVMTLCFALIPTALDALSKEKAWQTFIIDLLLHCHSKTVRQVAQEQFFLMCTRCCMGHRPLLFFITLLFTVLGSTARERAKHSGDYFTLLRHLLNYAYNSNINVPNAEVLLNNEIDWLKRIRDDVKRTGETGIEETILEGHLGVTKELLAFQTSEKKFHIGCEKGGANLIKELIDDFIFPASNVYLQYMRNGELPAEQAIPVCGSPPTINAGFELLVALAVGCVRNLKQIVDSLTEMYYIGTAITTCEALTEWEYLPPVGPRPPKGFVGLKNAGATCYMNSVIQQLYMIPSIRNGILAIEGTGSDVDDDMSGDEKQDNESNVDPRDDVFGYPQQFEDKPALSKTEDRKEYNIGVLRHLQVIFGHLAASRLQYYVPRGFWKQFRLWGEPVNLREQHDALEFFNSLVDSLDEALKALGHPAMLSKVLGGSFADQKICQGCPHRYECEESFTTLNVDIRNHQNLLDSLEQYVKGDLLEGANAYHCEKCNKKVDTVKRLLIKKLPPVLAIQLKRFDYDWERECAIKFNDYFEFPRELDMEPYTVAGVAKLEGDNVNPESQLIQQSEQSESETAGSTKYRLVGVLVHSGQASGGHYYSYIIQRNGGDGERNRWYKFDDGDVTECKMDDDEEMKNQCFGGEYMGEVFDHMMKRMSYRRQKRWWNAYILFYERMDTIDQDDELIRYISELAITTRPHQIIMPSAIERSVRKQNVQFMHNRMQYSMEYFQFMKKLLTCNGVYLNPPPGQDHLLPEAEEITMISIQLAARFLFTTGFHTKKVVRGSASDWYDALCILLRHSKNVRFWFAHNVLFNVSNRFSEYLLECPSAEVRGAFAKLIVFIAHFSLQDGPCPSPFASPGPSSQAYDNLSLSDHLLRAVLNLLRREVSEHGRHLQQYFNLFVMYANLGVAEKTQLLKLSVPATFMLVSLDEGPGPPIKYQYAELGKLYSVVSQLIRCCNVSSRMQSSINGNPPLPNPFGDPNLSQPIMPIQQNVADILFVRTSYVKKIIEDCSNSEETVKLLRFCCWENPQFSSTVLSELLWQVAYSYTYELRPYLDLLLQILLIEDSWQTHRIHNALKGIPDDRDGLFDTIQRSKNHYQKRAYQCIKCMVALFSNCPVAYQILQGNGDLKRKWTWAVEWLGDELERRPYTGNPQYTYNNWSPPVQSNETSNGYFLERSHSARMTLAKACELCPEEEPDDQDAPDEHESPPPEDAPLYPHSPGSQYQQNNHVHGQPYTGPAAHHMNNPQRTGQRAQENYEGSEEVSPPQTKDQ
Description: HA-Ub-VS labeling in K562 cell lysates. It counts as biochemical. As to the method: HA-Ub-VS is commonly used to label DUBs in cell lysates. […] A. and B. K562 cell lysates were treated with compound for 40 minutes prior to activity labeling with HA-Ub-VS (1.5 μM) for 20 minutes. Samples were analyzed by SDS-PAGE and immunoblotting with anti-HA antibody. C. […] Values were derived by fitting to the in Prism.

Another experiment deals with BaF3.p210. Kind of experiment: cytotoxicity in a panel of cell lines, Alamar Blue. Format: cell-based, mouse. Here is the method:
Cytoxicity was tested against a panel of cell lines: (i) B16/F10, a metastatic mouse melanoma cell line that suppresses the tumor suppressor Gas1 (Growth arrest-specific 1); (ii) BaF3, an immortalized mouse pro-B cell line that depends on IL-3 for growth and proliferation (L-3 stimulates expression of the pro-survival Bc1-2 family member, Mc1-1; and USP9x is the deubiquitinase responsible for stabilizing Mc1-1); (iii) Cos-1, monkey kidney fibroblast immortalized with SV40 T antigen; (iv) BaF3.p210, BaF3 cells expressing Bcr-Abl kinase (p210), the mutant protein that causes chronic myelogenous leukemia, and the target of Gleevec (The expression of Bcr-Abl cause proliferation to become IL-3-independent. These cells have been widely used in the development of Bcr-Abl kinase inhibitors. USP9x stabilizes Bcr-Abl by removing Ub and blocking degradation via autophagy.); (v) HEK293T, human embryonic kidney cell line expressing SV40 T antigen; (vi) HeLa, human cervical adenocarcinoma cell line; (vii) MCF7, human breast cancer cell line; and (viii) NIH3T3, mouse fibroblast cell line. Of these, the only cells dependent on USP9x for survival are BaF3.p210 and BaF3. A. Cells were treated with a single dose of TU50 for 48 h and viable cells were measured using Alamar Blue®. EC50=8±2 μM for BaF3.p210. B. As above, except that cells were treated with TU50 for 72 h.
(In general: Alamar Blue is a resazurin reagent that responds to reducing activity.)

The next experiment deals with K562 cells. Kind of experiment: apoptosis, cell cycle and viability of K562 cells by flow cytometry. The conditions noted are these: annexin V-FITC / propidium iodide, 24 hours (TU50 also 8 hours). It counts as cell-based, human. As to the method: as §6, §8

For `Cl.NCc1ccc(OC(=O)Oc2ccc(Br)cc2)cc1` [compound 4], in [1], the “GFP fluorescence of G76V ubiquitin-GFP” value is on record as “increases”. Moreover, in experiment [2], the “HA-Ub-VS binding to USP9x and USP7” value is “prevents binding of HA-Ub-VS to USP9x (290 kDa) and USP7 (150 kDa) selectively”. Moreover, the BCR/Abl level result in the experiment on Bcr-Abl kinase (compound numbered as in FIG. 3) was “decrease in BCR/Abl”. In the experiment on MCF7 cells, the “K48- and K63-linked ubiquitin” value was “elevated K48- and K63-linked ubiquitin”. Also, the “inhibition of caspases or the proteasome” value in [3] is reported as “does not inhibit caspases or the proteasome”. The “inhibition of UCHL1/3” value with UCH-L5, UCH-L3, UCH-L1 was “At higher concentrations UCHL1/3 (37 kDa) are inhibited”. Also, the SMAD4 monoubiquitination entry in the experiment on SMAD4 was “increase in SMAD4 monoubiquitination”. Further, the “MDM2 and P53 levels” value in the experiment with USP7 is “degradation of MDM2 and the stabilization of P53”.
The EC50 is the concentration giving half of the maximal effect. As to `CC(C)(C)OC(=O)NCc1cccc(N=C=S)c1` [TU50], at 20S proteasome, the “effect on proteasome activity” value was “no effect on proteasome activity”. Moreover, the Bcr-Abl kinase level entry in the experiment with Bcr-Abl kinase (TU50 4 hours) is given as “cause degradation of Bcr-Abl kinase”. Further, the “selectivity of DUB inhibition” value on USP9x (HA-Ub-VS labeling) was “selectively inhibits USP9x”. For the same compound, the half-maximal effective concentration (EC50) at USP9x (compound 40 minutes, then HA-Ub-VS (1.5 μM) 20 minutes) came to 3 ± 3 µM; in the experiment with BaF3.p210 (BaF3.p210, single dose, 48 h, Alamar Blue, read-out: EC50, viable cells), 8 ± 2 µM. Further, in the experiment with BaF3.p210 (panel of 8 cell lines, 48 h and 72 h), the “selectivity of proliferation inhibition over cell panel” value is reported as “selectively inhibits proliferation of cells that depend on USP9x”. Besides, in the experiment on K562 cells, the “apoptosis of K562 cells” value was “induce apoptosis of K562 cells”.
